Values quoted from earlier work in the CATMoS acute toxicity set (Mansouri et al. 2021).
Values joined by “and” are separate entries in the source; they are usually repeats but may differ in a detail not shown here. Equal entries are not always repeated.

Assay: rat acute oral toxicity
Conditions: in vivo
Text: […]The data set underlying the modeling effort for this project was initially compiled by NICEATM and U.S. EPA’s CCTE. Briefly, LD50 data were collected from rat acute oral systemic toxicity tests, including limit tests, ranges/confidence intervals, and discrete LD50 values. The full data set included 21,200 LD50 entries for 15,688 substances. […] Data were reviewed to ensure that LD50 values with obvious errors in the extracted data such as unit conversion errors (e.g., comma and decimal separator misplacements) were either fixed or removed. After this review, 16,209 LD50 values remained. Many of the chemicals represented had multiple LD50 entries, requiring that a single representative value per Chemical Abstracts Service Registry Number (CASRN) identifier be defined to facilitate modeling efforts. Based on ATWG feedback and to define the representative LD50 as a protective value while accounting for the distribution across multiple LD50s, the median of the lowest quartile was computed using only discrete LD50 values (omitting limit test data and range and confidence interval data). A detailed summary of the data compilation is available online on the NICEATM webpage dedicated to the collaborative modeling project (NTP 2020).
[…][…] For categorical designations, limit test and range/confidence interval LD50 data were integrated wherever possible. As such, the number of chemicals with end point values/calls varies across the modeling end points (Table 3) based on whether chemicals had representative LD50 values and/or other data. If a chemical had both, the representative value was used to determine categorical calls rather than limit test data. Some data were useable only for certain end points and categories depending on the thresholds. For example, ranges that spanned multiple hazard categories were considered only for the binary (very toxic/nontoxic) end points and omitted from rendering a determination for hazard category assignment.
[…]The final data set comprising 11,992 chemicals was split into training and evaluation sets […], respectively. This process was performed semirandomly by ordering chemicals based on the five end points (categorical and continuous LD50 values) and partitioning every fourth record into the evaluation set accordingly. This approach was taken to ensure an equivalent distribution of the LD50 values and the different hazard categories between the training and the evaluation sets without supervised sampling of the chemicals based on structures (Figure 1A). The sources of the chemical structures were also kept equivalent between the two sets, with chemical structures obtained from DSSTox, being the highest quality, representing over 75% of each set (Figure 1B).

Row | SMILES | LD50
1 | Nc1ccc([N+](=O)[O-])c(N)c1 | 4500 mg/kg
2 | CCOc1ccc(N2C(=O)C=CC2=O)cc1 | 630 mg/kg
3 | CCN(CC)CCSC(=O)N(c1ccccc1)c1ccccc1 | 370 mg/kg
4 | CN(C)c1nc(N(C)C)nc(N(C)C)n1 | 350 mg/kg
5 | CCCCC(CC)COC(C[n+]1ccccc1)c1cccc(Cl)c1 (stereo not given) | 250 mg/kg
6 | CCCCNCC(O)COc1ccc(-c2c(-c3ccccc3)c(=O)oc3cc(OC)ccc23)cc1 (stereo not given) | 500 mg/kg
7 | N#CN=c1ccccn1Cc1ccc(Cl)cc1 | 500 mg/kg
8 | N#CCCC[Si](Cl)(Cl)Cl | 2830 mg/kg
9 | CCCCC(C=CC(C)=O)CC (stereo not given) | 8120 mg/kg
10 | O=C1CSc2ncccc2N1 | 1050 mg/kg
11 | COc1ccc2c(c1)c(CC(=O)NO)c(C)n2C(=O)c1ccc(Cl)cc1 | 78 mg/kg
12 | COP(=S)(OC)Oc1ccc(S(N)(=O)=O)cc1 | 160 mg/kg
13 | CCCCCCCCCCOC(=O)c1ccccc1C(=O)OCCCCCCCC | 45000 mg/kg
14 | CCC(C)N(C(=O)c1c(Cl)cccc1Cl)C(C)CC (stereo not given) | 1450 mg/kg
15 | O=C(O)c1cc2ccccc2c(Cc2c(O)c(C(=O)OCCOCCN3CCN(C(c4ccccc4)c4ccc(Cl)cc4)CC3)cc3ccccc23)c1O (stereo not given) | 1740 mg/kg
16 | COc1cc2c(cc1OC)C(CCc1ccc(Cl)cc1)N(C)CC2 (stereo not given) | 400 mg/kg
17 | O=C(Nc1nnc(CCN2c3ccccc3Sc3ccccc32)s1)c1ccccc1 | 3220 mg/kg
18 | CCOP(=O)(OCC)SCSCC | 0.25 mg/kg
19 | N#Cc1ccc([N+](=O)[O-])cc1C#N | 850 mg/kg
20 | BrCc1cccc(Oc2ccccc2)c1 | 2330 mg/kg
21 | O=C(O)Cc1ccc2c(c1)C(=O)c1ccccc1CN2 | 810 mg/kg
22 | CC(C)CC(C)Nc1ccc(Nc2ccccc2)cc1 (stereo not given) | 3580 mg/kg
23 | C[n+]1ccccc1 | 285 mg/kg
24 | FC(F)(F)c1nc2ccc(Cl)cc2[nH]1 | 6.82 mg/kg
25 | Cc1cccc(N2CCN(CC=Cc3ccc4c(c3)CCC(=O)N4Cc3ccccc3)CC2)c1 | 500 mg/kg

Row | SMILES | LD50
26 | O=c1ccc(=O)[nH][nH]1 | 10800 mg/kg
27 | ClC1=C(Cl)C2(Cl)C3CCC4C(CCC3C1(Cl)C2(Cl)Cl)C1(Cl)C(Cl)=C(Cl)C4(Cl)C1(Cl)Cl (stereo not given) | 25000 mg/kg
28 | CCOC(CC)(C1=NCC(C)(C)CN1)c1ccc(Cl)cc1 (stereo not given) | 58 mg/kg
29 | CCSC(C)C1(CC)C(=O)NC(=S)NC1=O (stereo not given) | 772 mg/kg
30 | CC(=O)c1ccccn1 | 2280 mg/kg
31 | CN1C2CCC1CC(OC(=O)C(C)(CO)c1ccccc1)C2 (stereo not given) | 1100 mg/kg
32 | COc1ccc(C(N)=O)cc1C(=O)NCc1cccnc1 | 1720 mg/kg
33 | O=C(OCCOc1ccc(Cl)cc1Cl)c1ccccc1 | 1700 mg/kg
34 | CCc1c(Cl)ccc(O)c1Cl | 2260 mg/kg
35 | COC(=O)C1=C(C#N)NC(C)=C(C(=O)OC(C)C)C1c1cccc([N+](=O)[O-])c1 (stereo not given) | 1560 mg/kg
36 | O=[n+]1c2c(n([O-])c3ccccc31)CCCC2 | 1360 mg/kg
37 | O=C(OC1CCC(N2CCCCC2)CC1)c1ccc([N+](=O)[O-])cc1 (stereo not given) | 3250 mg/kg
38 | Cc1ccc(OC(=O)c2ccccc2O)cc1 | 1300 mg/kg
39 | N=C(N)SCc1ccccc1 | 27 mg/kg
40 | NC1Cc2ccccc2C1 | 326 mg/kg
41 | C=CCc1ccc(OC=O)c(OC)c1 | 3400 mg/kg
42 | Cc1cc(N)ccc1S(=O)(=O)NCCO | 8900 mg/kg
43 | FC(F)(F)c1cccc(CNC2=NCCS2)c1 | 50 mg/kg
44 | CC(C=O)=Cc1ccco1 | 1400 mg/kg
45 | CCCCOC(=O)CC(CC(=O)OCCCC)(OC(C)=O)C(=O)OCCCC | 31400 mg/kg
46 | COC(=N)N | 3700 mg/kg
47 | CCC(C)C(C(=O)OC1CC[N+](C)(C)CC1)c1ccccc1 (stereo not given) | 720 mg/kg
48 | C=C(OP(=O)(OC)OC)c1ccc(Cl)cc1Cl | 2350 mg/kg
49 | CC(C)CCOC=O | 9840 mg/kg
50 | CC(C)c1cccc(OC(=O)N(C)C)c1 | 160 mg/kg

Row | SMILES | LD50
51 | COP(=O)(OC)OC(=CCl)c1cc(Cl)ccc1Cl | 3790 mg/kg
52 | NC(N)=NC(N)=NCc1ccccc1 | 481 mg/kg
53 | O=C(c1cccnc1)N1CCN=C1Nc1c(Cl)cccc1Cl | 80 mg/kg
54 | C=CCn1c(=O)c2[nH]c(C)nc2n(CC(C)C)c1=O | 17 mg/kg
55 | Cc1ccccc1CN(C)N=O | 90 mg/kg
56 | CCC1OC(C)SC1=NOC(=O)NC (stereo not given) | 15 mg/kg
57 | C=C(Cl)C(=O)OC | 68 mg/kg
58 | CC(COc1ccc(C(C)(C)C)cc1)OS(=O)OCCCl (stereo not given) | 3900 mg/kg
59 | CCCCOC(=O)Cc1ccc(N(CCCl)CCCl)cc1 | 20 mg/kg
60 | CCCOC(=O)c1c[n+](C)c2n(c1=O)C(C)CCC2 (stereo not given) | 1810 mg/kg
61 | NS(=O)(=O)c1cc2c(cc1Cl)NC(CC1CCCC1)NS2(=O)=O (stereo not given) | 1000 mg/kg
62 | Cc1cccc(OCC(O)CNC(C)(C)C)c1C (stereo not given) | 575 mg/kg
63 | CCCCCCC=NO | 1040 mg/kg
64 | CCCc1ccc(O)cc1 | 500 mg/kg
65 | Oc1cc(Cl)c(Cl)c(Cl)c1-c1c(Cl)c(Cl)c(Cl)c(Cl)c1OCl | 360 mg/kg
66 | O=C(NNCc1ccccc1)c1ccccn1 | 240 mg/kg
67 | O=C(O)c1cc(O)nc(O)n1 | 10900 mg/kg
68 | Cc1ccc2c(c1)[C@]13CCCC[C@@H]1[C@H](C2)N(C)CC3 | 690 mg/kg
69 | Clc1ccc(CSC(Cn2cncn2)=Nc2ccc(Cl)cc2Cl)cc1 | 2800 mg/kg
70 | COc1ccccc1NC(=O)CC(=O)c1ccccc1 | 1600 mg/kg
71 | Cc1cc(-c2ccc(N=Nc3c(S(=O)(=O)O)cc4cc(S(=O)(=O)O)cc(N)c4c3O)c(C)c2)ccc1N=Nc1c(S(=O)(=O)O)cc2cc(S(=O)(=O)O)cc(N)c2c1O | 6200 mg/kg
72 | CCCCCOC(CBr)c1ccc(C2CCCC2)cc1 (stereo not given) | 250 mg/kg
73 | Cc1cc(Cl)ccc1NC=O | 564 mg/kg
74 | CCCOC(=O)OOC(=O)OCCC | 3400 mg/kg
75 | CCOc1occ2cnc(C)c(O)c12 | 2150 mg/kg

Row | SMILES | LD50
76 | CC(=O)OC(C)(C)CCc1ccccc1 | 4850 mg/kg
77 | CC(C)C(=O)OC(=O)C(C)C | 7700 mg/kg
78 | CCOP(=S)(Oc1ccc([N+](=O)[O-])cc1)Oc1ccc([N+](=O)[O-])cc1 | 66.9 mg/kg
79 | OCCOCCOCCOCCOc1ccccc1 | 1260 mg/kg
80 | O=C(NCCc1ccc(O)cc1)c1cccnc1 | 8500 mg/kg
81 | CCSP(=O)(OC)SCC | 158 mg/kg
82 | Cc1c(CC(=O)O)c2ccccc2n1C(=O)c1ccccc1 | 362 mg/kg
83 | C=C(C)C(=O)OCC(C)O (stereo not given) | 11200 mg/kg
84 | C=CC1(C)OC(=O)N(c2cc(Cl)cc(Cl)c2)C1=O (stereo not given) | 10000 mg/kg
85 | CCOP(=S)(OCC)Oc1cnc2ccccc2n1 | 26 mg/kg
86 | O=C(O)CNCP(=O)(O)O | 4870 mg/kg and 10500 mg/kg
87 | CCCC(C(=O)c1ccc(C)cc1)N1CCCC1 (stereo not given) | 620 mg/kg
88 | Cn1c2c(c3ccc(N)cc31)CCCC2 | 705 mg/kg
89 | CNCCCN | 951 mg/kg
90 | CCN(CC)CCN(CCN(CC)CC)n1cc(-c2ccccc2)c2ccccc21 | 800 mg/kg
91 | CNC(=S)S | 108 mg/kg
92 | C=CCNC(=O)OCC(O)C1COc2ccccc2O1 (stereo not given) | 1500 mg/kg
93 | COCCc1ccccc1 | 4100 mg/kg
94 | CC(=O)OCCC(C)C | 16600 mg/kg
95 | FC(F)(F)CO[C@@H]1CC[C@@](Cn2cncn2)(c2ccc(Cl)cc2Cl)O1 | 450 mg/kg
96 | O=[N+]([O-])c1cc2[nH]c(C(F)(F)F)nc2c(Cl)c1Cl | 55 mg/kg
97 | C1=CC2C3CCC(C3)C2C1 (stereo not given) | 670 mg/kg
98 | OCCS | 244 mg/kg
99 | CCCCCCCCCCCCCCCCCC(=O)OCCCC | 32000 mg/kg
100 | Nc1ccc(F)c(F)c1F | 699 mg/kg

Row | SMILES | LD50
101 | CCCCCC(C)O (stereo not given) | 2580 mg/kg
102 | CC[C@@H](C(=O)[C@@H](C)[C@@H](O)[C@H](C)CCc1ccc(C)c(O)c1C(=O)O)[C@H]1O[C@](CC)([C@H]2CC[C@](O)(CC)[C@H](C)O2)C[C@@H]1C | 122 mg/kg
103 | CCCCOC(=O)COC(=O)c1ccccc1C(=O)OCCCC | 7000 mg/kg
104 | CS(=O)c1ccc(Cl)cc1 (stereo not given) | 463 mg/kg
105 | NS(=O)(=O)c1cc2c(cc1Cl)CN(C1CCCCC1)C2=O | 6000 mg/kg
106 | C=C1CC[C@H](O)C/C1=C/C=C1\CCC[C@]2(C)[C@@H]([C@H](C)CCCC(C)C)CC[C@@H]12 | 42 mg/kg
107 | CC(O)C(c1ccc2c(c1)OCO2)N1CCOCC1 (stereo not given) | 2470 mg/kg
108 | Cc1ccc(C2(O)CCN(CCCC(=O)c3ccc(F)cc3)CC2)cc1 | 152 mg/kg
109 | CCOC(=O)Nc1cccc2c1CN(C)CC2c1ccc(Cl)cc1 (stereo not given) | 665 mg/kg
110 | COc1ccccc1OCCOC(=O)c1ccccc1OC(C)=O | 2930 mg/kg
111 | CCC1(CC)C(=O)C=CN(CN2CCNCC2)C1=O | 1340 mg/kg
112 | CCCc1ccccc1 | 6040 mg/kg
113 | CC(C)C(=O)Nc1ccc([N+](=O)[O-])c(C(F)(F)F)c1 | 787 mg/kg
114 | Cc1ccn(CO)n1 | 1650 mg/kg
115 | C=CC(COC)c1ccccc1OC(=O)NC (stereo not given) | 100 mg/kg
116 | O=C(O)C=Cc1ccc([N+](=O)[O-])o1 | 1220 mg/kg
117 | COc1ccc2c(c1)c(CC(=O)OCOC(=O)c1cccc(C)c1)c(C)n2C(=O)c1ccc(Cl)cc1 | 106 mg/kg
118 | CC(C)CCI | 1420 mg/kg
119 | CCCCOC(C1=NCCCN1)c1ccccc1 (stereo not given) | 310 mg/kg
120 | CN(C)S(=O)(=O)c1cc(Cl)c(N)cc1Cl | 4090 mg/kg
121 | CC(=O)NC(=O)N(C)N=O | 200 mg/kg
122 | COc1ccc2c(c1)c(CC(=O)OCC(=O)O)c(C)n2C(=O)c1ccc(Cl)cc1 | 24.2 mg/kg
123 | CN1Cc2c(N)cccc2C(c2ccccc2)C1 (stereo not given) | 267 mg/kg and 430 mg/kg
124 | CC(C)CS | 7170 mg/kg
125 | COCCN(C(=O)CCl)c1c(C)cccc1C | 1600 mg/kg
